Results: US9796984B2, “Protection against herbivores” (priority 2004, dated 2017)
pKi: −log10 of the molar value. Like-named read-outs stand apart in the source and are kept apart here. Blank lines part the entries; values can stand above or below the compound they belong to.

Key:
LeARG1 [1] = assay: Effect of various compounds on arginase activity, LeARG1; assay type: biochemical, Lycopersicon esculentum (tomato)
Description: (§1) Homogenates were centrifuged at 20,000×g for 10 min at 4° C., and the supernatants were used as the enzyme source. Recombinant LeARG enzyme was prepared as described above. Protein concentrations were determined as described above. Arginase activity was measured with a spectrophotometric assay for detection of urea (Alabadi et al., Plant Physiol. 112:1237-1244 (1996)), with minor modifications. The enzyme solution was activated with 1 mM MnCl2 at 37° C. for 60 min. […] Reactions were carried out at 37° C. for 20 min and stopped by the addition of 500 μl of 15% (v/v) perchloric acid. A 200-μl aliquot was mixed vigorously with 3 ml of acid mixture [9% (v/v) of phosphoric acid and 27% (v/v) of sulfuric acid] and 100 μl of 3% (w/v) α-isonitrosopropiophenone (Sigma) in 95% ethanol. This mixture was heated in a boiling water bath in the dark for 60 min and cooled for 10 min to room temperature. The OD540 was recorded on a Uvikon 933 spectrophotometer (Research Instruments, San Diego, Calif.). Substrate specificity tests were performed as described above with the exception that agmatine and other related compounds were added in place of L-arginine, to a final concentration of 250 mM. Substrates tested were obtained from Sigma. […] Inhibitor studies were conducted with test compounds that were dissolved in water and then diluted into the assay buffer at various concentrations prior to addition of enzyme. For example, 1 μl of a 5-mM L-NOHA stock was added to 489 μl of assay buffer, followed by addition of 10 μl of enzyme solution. The reaction was carried out as described above. L-NOHA was obtained from Cayman Chemical (Ann Arbor, Mich.). [table]

LeARG2 [2] = assay: Effect of various compounds on arginase activity, LeARG2; assay type: biochemical, Lycopersicon esculentum (tomato)
Description: as §1

LeARG1 [3] = assay: Substrate specificity of tomato arginases (urea detection), recombinant LeARG1; assay type: biochemical, Lycopersicon esculentum (tomato); settings: 250 mM substrate; for Activity: 50 mM CHES pH 9.6, 2 mM MnCl2, 37° C., 30 min, mean and SD of triplet reactions; for activity relative to that obtained with L-arginine: pH 9.6
LeARG2 [4] = assay: Substrate specificity of tomato arginases (urea detection), recombinant LeARG2; assay type: biochemical, Lycopersicon esculentum (tomato); settings: 250 mM substrate; for Activity: 50 mM CHES pH 9.6, 2 mM MnCl2, 37° C., 30 min, mean and SD of triplet reactions; for activity relative to that obtained with L-arginine: pH 9.6
Bovine arginase = target: T1, Bovine arginase (Bos taurus, UniProt Q2KJ64); assay: Substrate specificity (urea detection), bovine arginase; assay type: biochemical; settings: 250 mM substrate; for Activity: 50 mM CHES pH 9.6, 2 mM MnCl2, 37° C., 30 min, mean and SD of triplet reactions; for activity relative to that obtained with L-arginine: pH 9.6
T1 sequence (Q2KJ64 1-322): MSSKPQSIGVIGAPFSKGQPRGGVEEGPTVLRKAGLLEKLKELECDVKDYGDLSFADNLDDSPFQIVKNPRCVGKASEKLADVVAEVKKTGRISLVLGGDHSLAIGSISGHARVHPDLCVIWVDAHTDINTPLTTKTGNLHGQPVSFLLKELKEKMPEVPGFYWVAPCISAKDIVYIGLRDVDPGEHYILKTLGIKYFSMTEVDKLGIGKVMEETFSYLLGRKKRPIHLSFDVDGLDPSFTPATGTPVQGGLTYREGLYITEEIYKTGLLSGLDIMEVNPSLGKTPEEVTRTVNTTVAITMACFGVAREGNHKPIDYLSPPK

LeARG2 [5] = assay: RNA blot analysis of LeARG2 transcripts in treated tomato leaves; parameters: species or system Lycopersicon esculentum (tomato); settings: in vivo
LeARG1 [6] = assay: RNA blot analysis of LeARG1 transcripts in treated tomato leaves; parameters: species or system Lycopersicon esculentum (tomato); settings: in vivo
threonine deaminase (TD) [7] = target: T2, threonine deaminase (TD) (Solanum lycopersicum, UniProt P25306); assay type: biochemical; settings: midgut extracts of larvae grown on WT plants; Ile up to mM
T2 construct: from tissue; host or cells: desalted crude extracts of methyl-JA-treated tomato leaves, and of midgut content of M. sexta larvae reared on WT tomato
T2 sequence (P25306 52-418): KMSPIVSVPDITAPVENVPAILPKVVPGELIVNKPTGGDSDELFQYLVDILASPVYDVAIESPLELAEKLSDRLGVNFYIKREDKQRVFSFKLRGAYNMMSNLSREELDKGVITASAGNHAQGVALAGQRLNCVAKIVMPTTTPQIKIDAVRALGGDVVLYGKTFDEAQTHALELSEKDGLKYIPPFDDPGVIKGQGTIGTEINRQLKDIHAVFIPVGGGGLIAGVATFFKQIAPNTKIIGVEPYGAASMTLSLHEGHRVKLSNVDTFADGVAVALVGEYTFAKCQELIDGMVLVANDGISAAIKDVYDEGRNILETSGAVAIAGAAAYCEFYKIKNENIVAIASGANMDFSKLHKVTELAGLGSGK

threonine deaminase (TD) [8] = assay type: biochemical; settings: extracts of methyl-JA-treated tomato leaves
tomato arginase = assay: Inhibition of tomato arginase by NOHA; assay type: biochemical, Lycopersicon esculentum (tomato)
Description: as §1, with “Mich.).” for “Mich.). [table]”

arginase activity = assay: L-arginase activity in tomato leaf protein extracts; assay type: biochemical, Lycopersicon esculentum (tomato); settings: exogenous MeJA vapor
[9] = compound 5.0 mM, 25 mM L-arginine, % of control reaction
[10] = compound 0.2 mM, 25 mM L-arginine, % of control reaction

SMILES: OCCS [2-Mercaptoethanol]
Relative activity (%) (LeARG1 [1]): 81%
Relative activity (%) (LeARG2 [2]): 80%

Relative activity (%) (LeARG1 [1]; [9]): 38%
Relative activity (%) (LeARG2 [2]; [9]): 38%
SMILES: CC(S)C(=O)O (centres unmarked) [2-Mercaptopropionate]

SMILES: O=C(O)CCS [3 -Mercaptopropionate]
Relative activity (%) (LeARG1 [1]; [9]): 24%
Relative activity (%) (LeARG2 [2]; [9]): 26%

SMILES: N=C(N)NCCCCN [Agmatine]
Activity (LeARG1 [3]): 40 ± 3 μmol/mg protein/h
activity relative to that obtained with L-arginine (LeARG1 [3]): (0.5%)
Activity (LeARG2 [4]): 41 ± 6 μmol/mg protein/h
activity relative to that obtained with L-arginine (LeARG2 [4]): (0.6%)
Activity (Bovine arginase): 12 ± 2 μmol/mg protein/h
activity relative to that obtained with L-arginine (Bovine arginase): (0.2%)

SMILES: CC[C@H]1C=C(C(=O)N[C@@]2(C(=O)O)C[C@@H]2CC)[C@H]2CCC(=O)[C@H]2C1 [COR, coronatine]
LeARG2 expression in leaves (LeARG2 [5]): necessary and sufficient
LeARG1 expression in leaves (LeARG1 [6]): not induced

SMILES: N=C(N)NOCC[C@H](N)C(=O)O [Canavanine]
Activity (LeARG1 [3]): 3 ± 1 μmol/mg protein/h
activity relative to that obtained with L-arginine (LeARG1 [3]): (<0.1%)
Activity (LeARG2 [4]): 9 ± 1 μmol/mg protein/h
activity relative to that obtained with L-arginine (LeARG2 [4]): (0.1%)
Activity (Bovine arginase): 14 ± 2 μmol/mg protein/h
activity relative to that obtained with L-arginine (Bovine arginase): (0.2%)

SMILES: N=C(N)NCCC[C@@H](N)C(=O)O [D-Arginine]
Activity (LeARG1 [3]): 195 ± 2 μmol/mg protein/h
activity relative to that obtained with L-arginine (LeARG1 [3]): (2.2%)
Activity (LeARG2 [4]): 250 ± 5 μmol/mg protein/h
activity relative to that obtained with L-arginine (LeARG2 [4]): (3.6%)
Activity (Bovine arginase): 32 ± 13 μmol/mg protein/h
activity relative to that obtained with L-arginine (Bovine arginase): (0.5%)

SMILES: N=C(N)NCCCC[C@H](N)C(=O)O [Homoarginine]
Activity (LeARG1 [3]): 1269 ± 2 μmol/mg protein/h
activity relative to that obtained with L-arginine (LeARG1 [3]): (14%)
Activity (LeARG2 [4]): 916 ± 16 μmol/mg protein/h
activity relative to that obtained with L-arginine (LeARG2 [4]): (13%)

SMILES: CC[C@H](C)[C@H](N)C(=O)O [Ile, isoleucine]
TD activity in the presence of Ile (threonine deaminase (TD) [7]): not significantly inhibited
TD activity in the presence of Ile (threonine deaminase (TD) [8]): strongly inhibited

Relative activity (%) (LeARG1 [1]; [9]): 72%
Relative activity (%) (LeARG2 [2]; [9]): 88%
SMILES: NCCC[C@H](N)C(=O)O [L- Ornithine]

SMILES: N=C(N)NCCC[C@H](N)C(=O)O [L-Arginine]
Activity (LeARG1 [3]): 8848 ± 177 μmol/mg protein/h
activity relative to that obtained with L-arginine (LeARG1 [3]): (100%)
Activity (LeARG2 [4]): 7016 ± 86 μmol/mg protein/h
activity relative to that obtained with L-arginine (LeARG2 [4]): (100%)
Activity (Bovine arginase): 6608 ± 351 μmol/mg protein/h
activity relative to that obtained with L-arginine (Bovine arginase): (100%)

Relative activity (%) (LeARG1 [1]; [10]): 7%
Relative activity (%) (LeARG2 [2]; [10]): 5%
Ki lower than the Km for L-arginine (tomato arginase): more than 1000 fold
mode of inhibition (tomato arginase; plant and non-plant arginases): competitive inhibitor
pKi (tomato arginase; plant enzymes (LeARG1 and LeARG2)): ~4.85
SMILES: NC(=NCCC[C@H](N)C(=O)O)NO [L-NOHA, N^G-hydroxy-L-arginine]

arginase activity in leaves after treatment (arginase activity): increase
SMILES: CC/C=C\CC1C(=O)CCC1CC(=O)OC (centres unmarked) [MeJA]
LeARG2 expression in leaves (LeARG2 [5]): strongly elicited
LeARG1 expression in leaves (LeARG1 [6]): low level

SMILES: O=C(O)CS [Mercaptoacetate]
Relative activity (%) (LeARG1 [1]; [9]): 28%
Relative activity (%) (LeARG2 [2]; [9]): 26%
